The text below walks through data of patent US9079866B2, “Flap modulators” (JANSSEN PHARMACEUTICA NV, priority 2013, dated 2015).

Structures can show the parent of a compound that is named as a salt. Where two headings read alike, the source gives them in different places.

Usually IC50 stands for the concentration that gives 50% inhibition. A word on the Ki: it is a dissociation constant, usually derived from enzyme kinetics or from competition with a known ligand.

Test [1] deals with leukotriene pathway in human whole blood (LTB4 levels). Nature of the test: Human whole blood assay (A23187-stimulated LTB4). The test is classed as cell-based. Conditions: Homo sapiens, read-out: LTB4 IC50 1:1. In outline: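 Compounds are pre-incubated 15 min at 37° Celsius in RPMI-diluted (1:1) heparinised whole blood before a 30 min A23187 stimulus (7 μg/mL). Plasma LTB4 is read by immunoassay kit, with IC50 calculated from a 4-parameter equation.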

The target of another test is human FLAP (Homo sapiens (Human), UniProt P20292). Nature of the test: FLAP binding assay (HTRF format). Put shortly: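 Binding of compounds to FLAP read out as HTRF ratio. Values are the mean of two assay plates, each sample run in duplicate per plate.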
Sequence of human FLAP (P20292 whole entry): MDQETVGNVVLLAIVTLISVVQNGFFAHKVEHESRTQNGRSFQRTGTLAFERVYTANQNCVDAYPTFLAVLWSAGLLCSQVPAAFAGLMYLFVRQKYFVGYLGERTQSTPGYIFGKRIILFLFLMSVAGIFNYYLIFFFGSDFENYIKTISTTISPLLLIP
(Time-resolved FRET reads energy transfer from a long-lived donor to a nearby acceptor.)

The mark [2] stands for this setting: human whole blood diluted 1:1 in RPMI, A23187-stimulated LTB4.
Setting [3] is: human FLAP wild type, HTRF format, average of two plates, duplicates.
Where [4] appears, read: read-out: FLAP Binding wild type HTRF Ki.
Where [5] appears, read: human whole blood diluted 1:1, A23187-stimulated.

Consider `Nc1cnc(-c2ccc(-c3ccccc3S(=O)(=O)N3CCCC(F)(F)C3)cc2F)cn1` [Example 50, 5-{2′-[(3,3-Difluoropiperidin-1-yl)sulfonyl]-3-fluorobiphenyl-4-yl}pyrazin-2-amine], for which the IC50 in test [1] (setting [2]) was found to be 15 nM. For the same molecule, the Ki at human FLAP (setting [3]) worked out at 1 nM.

As for `O=S1(=O)CCN(S(=O)(=O)c2ccccc2-c2ccc(-c3cnc4c(c3)OCCN4)c(F)c2)CC1` [Example 392, 7-{2′-[(1,1-Dioxidothiomorpholin-4-yl)sulfonyl]-3-fluorobiphenyl-4-yl}-3,4-dihydro-2H-pyrido[3,2-b][1,4]oxazine], in test [1] (setting [2]), the IC50 stood at 16 nM. Affinity on human FLAP (setting [3]) was put at a Ki of 1 nM.

On to `Nc1cnc(-c2ccc(-c3ccccc3S(=O)(=O)Nc3ccccc3)cc2F)cn1` [Example 26, 4′-(5-Aminopyrazin-2-yl)-3′-fluoro-N-phenylbiphenyl-2-sulfonamide], for which the IC50 in test [1] (setting [2]) is 26 nM. On human FLAP (setting [3]), this molecule had an inhibition constant (Ki) of 1 nM.

For `Nc1cnc(-c2ccc(-c3ccccc3Sc3nccc(N)n3)cc2F)cn1` [Example 216, 2-{[4′-(5-Aminopyrazin-2-yl)-3′-fluorobiphenyl-2-yl]sulfanyl}pyrimidin-4-amine hydrochloride], in test [1] (setting [2]), the IC50 came out at 16 nM. Besides, the Ki on human FLAP (setting [4]) turned out to be 2 nM.

Take `Nc1ncc(-c2ccc(-c3ccccc3S(=O)(=O)NC3CC3)cc2F)cn1` [Example 284, 4′-(2-Aminopyrimidin-5-yl)-N-cyclopropyl-3′-fluorobiphenyl-2-sulfonamide trifluoroacetic acid salt]: the IC50 in test [1] (setting [2]) was found to be 1040 nM. The Ki on human FLAP (setting [3]) was 42 nM.

Turning to `CC(C)(C)[C@@H](CO)NS(=O)(=O)c1ccccc1-c1ccc(-c2cnc(N)cn2)c(F)c1` [Example 149, (S)-4′-(5-Aminopyrazin-2-yl)-3′-fluoro-N-(1-hydroxy-3,3-dimethylbutan-2-yl)-[1,1′-biphenyl]-2-sulfonamide], in test [1] (setting [2]), the IC50 was found to be 82 nM. The same molecule displayed a Ki on human FLAP (setting [3]) of 5 nM.

As for `O=S(=O)(c1ccccc1-c1ccc(-c2cnc3[nH]ccc3n2)c(F)c1)N1CCOCC1` [Example 375, 2-[3-Fluoro-2′-(morpholin-4-ylsulfonyl)biphenyl-4-yl]-5H-pyrrolo[2,3-b]pyrazine], the IC50 in test [1] (setting [2]) amounted to 31 nM. This molecule also registered a Ki at human FLAP (setting [3]) of 2 nM.

In the case of `Nc1cnc(-c2ccc(-c3ccccc3Sc3ccnc(N)n3)cc2F)cn1` [Example 242, 4-{[4′-(5-Aminopyrazin-2-yl)-3′-fluorobiphenyl-2-yl]sulfanyl}pyrimidin-2-amine hydrochloride], the IC50 in test [1] (setting [2]) came out at 4 nM. Moreover, at human FLAP (setting [3]), the Ki was 1 nM.

For `CC(C)C[C@@H](CO)NS(=O)(=O)c1ccccc1-c1ccc(-c2cnc(N)cn2)c(F)c1` [Example 79, 4′-(5-Aminopyrazin-2-yl)-3′-fluoro-N-[(1S)-1-(hydroxymethyl)-3-methylbutyl]biphenyl-2-sulfonamide], the IC50 in test [1] (setting [2]) is 150 nM. The molecule further returned a Ki at human FLAP (setting [3]) of 5 nM.

On to `Nc1cnc(-c2ccc(-c3ccccc3S(=O)(=O)N3CCC(CO)CC3)cc2F)cn1` [Example 68, (1-{[4′-(5-Aminopyrazin-2-yl)-3′-fluorobiphenyl-2-yl]sulfonyl}piperidin-4-yl)methanol], for which the IC50 in test [1] (setting [2]) came out at 6 nM. On human FLAP (setting [3]), this molecule yielded a Ki of 1 nM.

For `Nc1ncc(-c2ccc(-c3ccccc3S(=O)(=O)N3CCNC[C@@H]3CO)cc2F)cn1` [Example 258, [(2R)-1-{[4′-(2-Aminopyrimidin-5-yl)-3′-fluorobiphenyl-2-yl]sulfonyl}piperazin-2-yl]methanol], in test [1] (setting [2]), the IC50 turned out to be 202 nM. For the same molecule, the Ki on human FLAP (setting [3]) turned out to be 243 nM.

Turning to `N#Cc1nc(N)cnc1-c1ccc(-c2ccccc2S(=O)(=O)C2CC2)cc1F` [Example 729, 6-Amino-3-[2′-(cyclopropylsulfonyl)-3-fluorobiphenyl-4-yl]pyrazine-2-carbonitrile], the IC50 in test [1] (setting [5]) amounted to 861 nM. Further, the Ki at human FLAP (wild type FLAP, HTRF format) was 64.7 nM.

Regarding `CNC(=O)C1CN(S(=O)(=O)c2ccccc2-c2ccc(-c3cnc(N)nc3)c(F)c2)C1` [Example 705, 1-{[4′-(2-Aminopyrimidin-5-yl)-3′-fluorobiphenyl-2-yl]sulfonyl}-N-methylazetidine-3-carboxamide], the IC50 in test [1] (setting [5]) was 289 nM. Besides, at human FLAP (wild type FLAP, HTRF format), the Ki was 86.9 nM.

Regarding `Nc1cnc(-c2ccc(-c3ccccc3S(=O)(=O)NC3CCc4ccccc43)cc2F)cn1` (stereo in doubt) [Example 22, (S)-4′-(5-Aminopyrazin-2-yl)-N-[(1S)-2,3-dihydro-1H-inden-1-yl]-3′-fluorobiphenyl-2-sulfonamide], the IC50 in test [1] (setting [2]) came out at 48 nM. Further, the Ki on human FLAP (setting [3]) was 2 nM.

Turning to `C[C@H](NC(=O)c1cc(C(F)(F)F)ccc1-c1ccc(-c2cnc(N)cn2)c(F)c1)C(F)(F)F` [Example 790, 2-[4-(5-Aminopyrazin-2-yl)-3-fluoro-phenyl]-5-(trifluoromethyl)-N-[(1S)-2,2,2-trifluoro-1-methyl-ethyl]benzamide], the IC50 in test [1] (setting [5]) was 25.3 nM. The Ki at human FLAP (wild type FLAP, HTRF format) turned out to be 1.5 nM.

For the molecule `Nc1cnc(-c2ccc(-c3ccccc3C(=O)N3CCOC(CO)C3)cc2F)cn1` (racemic) [Example 798, [2-[4-(5-Aminopyrazin-2-yl)-3-fluoro-phenyl]phenyl]-[2-(hydroxymethyl)morpholin-4-yl]methanone], the IC50 in test [1] (setting [5]) stood at 220 nM. Besides, at human FLAP (wild type FLAP, HTRF format), the affinity corresponds to a Ki of 257 nM.

Regarding `CC(C)N(CCO)S(=O)(=O)c1ccccc1-c1ccc(-c2cnc(N)cn2)c(F)c1` [Example 141, 4′-(5-Aminopyrazin-2-yl)-3′-fluoro-N-(2-hydroxyethyl)-N-(1-methylethyl)biphenyl-2-sulfonamide], the IC50 in test [1] (setting [2]) was 3 nM. At human FLAP (setting [3]), this molecule gave a Ki of 1 nM.

Turning to `Nc1cnc(-c2ccc(-c3ccccc3NS(=O)(=O)C3CC3)cc2F)cn1` [Example 38, N-(4′-(5-aminopyrazin-2-yl)-3′-fluoro-[1,1′-biphenyl]-2-yl)cyclopropanesulfonamide], the IC50 in test [1] (setting [2]) turned out to be 177 nM. This molecule returned a Ki at human FLAP (setting [3]) of 33 nM.

Take `Nc1ncc(-c2ccc(-c3ccccc3S(=O)(=O)N3CCC(F)(F)C3)cn2)cn1` [Example 680, 5-(5-{2-[(3,3-Difluoropyrrolidin-1-yl)sulfonyl]phenyl}pyridin-2-yl)pyrimidin-2-amine trifluoroacetic acid salt]: in test [1] (setting [5]), the 50% inhibitory concentration (IC50) turned out to be 1050 nM. Moreover, on human FLAP (setting [4]), the Ki was 610 nM.

For `CC(C)(C)[C@@H](CO)NS(=O)(=O)c1ccccc1-c1ccc(-c2cnc(N)nc2)c(F)c1` [Example 270, 4′-(2-Aminopyrimidin-5-yl)-3′-fluoro-N-[(1S)-1-(hydroxymethyl)-2,2-dimethylpropyl]biphenyl-2-sulfonamide trifluoroacetic acid salt], the IC50 in test [1] (setting [2]) stood at 1060 nM. Besides, the Ki at human FLAP (setting [4]) stood at 57 nM.

As for `Fc1cc(-c2ccccc2Oc2ncccn2)ccc1-c1ccc2[nH]cnc2c1` [Example 543, 5-[3-Fluoro-2′-(pyrimidin-2-yloxy)biphenyl-4-yl]-1H-benzimidazole], the IC50 in test [1] (setting [5]) stood at 4160 nM. The Ki on human FLAP (wild type FLAP, HTRF format) is 444 nM.

Take `CC(C)(C)NS(=O)(=O)c1ccccc1-c1ccc(-c2cnc(N)cc2C#N)c(F)c1` [Example 436, 4′-(6-Amino-4-cyanopyridin-3-yl)-N-tert-butyl-3′-fluorobiphenyl-2-sulfonamide]: the half-maximal inhibitory concentration (IC50) in test [1] (setting [5]) came out at 3280 nM. At human FLAP (wild type FLAP, HTRF format), this molecule came in with a Ki of 308 nM.

Take `CC(C)[C@@H](CO)NS(=O)(=O)c1ccccc1-c1ccc(-c2cnc(N)nc2)c(F)c1` [Example 271, 4′-(2-Aminopyrimidin-5-yl)-3′-fluoro-N-[(1S)-1-(hydroxymethyl)-2-methylpropyl]biphenyl-2-sulfonamide trifluoroacetic acid salt]: the IC50 in test [1] (setting [2]) amounted to 606 nM. At human FLAP (setting [3]), this molecule registered a Ki of 51 nM.
